PubChem BioAssay AID1963446 (Molecular Pharmacology Branch, DTP, NCI, 2024)
Several values for one entry are separate records, joined by “and”; a condition that tells them apart may be missing. Equal values may be shown once.

Test system: 993429-296-R-J1-PDC complex spheroid growth, percent test/control
Test: Anticancer human tumor 993429-296-R-J1-PDC patient-derived uterine sarcoma cell line growth inhibition [Asc]
Conditions: for viability, T/C: stronger effect = lower value; active means viability on the fitted dose curve at most 10% of control; inactive means the rest
Procedure, shortened: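 Stromal components (HUVEC and hMSC) are co-assembled with the cancer cells into multicellular spheroids. Drugs are then added singly or paired, at concentrations falling by half-log increments from a clinically achievable maximum, capped at 10 microM without known Cmax.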

[1] = curve of first compound, second compound 0.1 µM
[2] = curve of first compound, second compound 0.316 µM
[3] = curve of first compound, second compound 1 µM
[4] = curve of first compound, second compound 3.16 µM
[5] = curve of first compound, second compound 10 µM
[6] = second compound 0.1 µM, first compound 0.0316 µM
[7] = second compound 0.1 µM, first compound 0.1 µM
[8] = second compound 0.1 µM, first compound 0.316 µM
[9] = second compound 0.1 µM, first compound 1 µM
[10] = second compound 0.316 µM, first compound 0.0316 µM
[11] = second compound 0.316 µM, first compound 0.1 µM
[12] = second compound 0.316 µM, first compound 0.316 µM
[13] = second compound 0.316 µM, first compound 1 µM
[14] = second compound 1 µM, first compound 0.0316 µM
[15] = second compound 1 µM, first compound 0.1 µM
[16] = second compound 1 µM, first compound 0.316 µM
[17] = second compound 1 µM, first compound 1 µM
[18] = second compound 3.16 µM, first compound 0.0316 µM
[19] = second compound 3.16 µM, first compound 0.1 µM
[20] = second compound 3.16 µM, first compound 0.316 µM
[21] = second compound 3.16 µM, first compound 1 µM
[22] = second compound 10 µM, first compound 0.0316 µM
[23] = second compound 10 µM, first compound 0.1 µM
[24] = second compound 10 µM, first compound 0.316 µM
[25] = second compound 10 µM, first compound 1 µM
[26] = second compound 0.1 µM, first compound 0.00316 µM
[27] = second compound 0.1 µM, first compound 0.01 µM
[28] = second compound 0.316 µM, first compound 0.00316 µM
[29] = second compound 0.316 µM, first compound 0.01 µM
[30] = second compound 1 µM, first compound 0.00316 µM
[31] = second compound 1 µM, first compound 0.01 µM
[32] = second compound 3.16 µM, first compound 0.00316 µM
[33] = second compound 3.16 µM, first compound 0.01 µM
[34] = second compound 10 µM, first compound 0.00316 µM
[35] = second compound 10 µM, first compound 0.01 µM
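Further: spheroids exposed to compounds for seven days.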

C=C(F)C(=O)N1CCN(c2nc(OCC3CCCN3C)nc3c2CCN(c2cccc4cccc(Cl)c24)C3)CC1CC#N (configuration not stated) + Cc1c(S(C)(=O)=O)c(-c2cc(F)cc(N3CCN(c4ccc(NS(=O)(=O)c5ccc(NC(CCN6CCC(C(=O)OCCCP(=O)(O)O)CC6)CSc6ccccc6)c(S(=O)(=O)C(F)(F)F)c5)cc4)CC3)c2)c(-c2ccc(Cl)cc2)n1C(C)C
inactive: viability, T/C [6] 57.1% | viability, T/C [7] 85% | viability, T/C [8] 69.2% | viability, T/C [9] 17.5% | viability, T/C [10] 71.8% | viability, T/C [11] 77.1% | viability, T/C [12] 70.6% | viability, T/C [14] 49.5% | viability, T/C [15] 60.8% | viability, T/C [16] 50.5% | viability, T/C [18] 46.9% | viability, T/C [19] 49.6% | viability, T/C [20] 35.9% | viability, T/C [22] 78.9% | viability, T/C [23] 108% | viability, T/C [24] 87.3% | viability, T/C [25] 10.4%
< 31.6 nM: IC50 [4]
494 nM: IC50 [1]
553 nM: IC50 [5]
active: viability, T/C (second compound 0.1 µM, first compound 3.16 µM) 0.55% | viability, T/C (second compound 0.1 µM, first compound 10 µM) 0.23% | viability, T/C [13] 7.35% | viability, T/C (second compound 0.316 µM, first compound 3.16 µM) 0.21% | viability, T/C (second compound 0.316 µM, first compound 10 µM) 0.19% | viability, T/C [17] 5.26% | viability, T/C (second compound 1 µM, first compound 3.16 µM) 0.3% | viability, T/C (second compound 1 µM, first compound 10 µM) 0.14% | viability, T/C [21] 7.98% | viability, T/C (second compound 3.16 µM, first compound 3.16 µM) 0.08% | viability, T/C (second compound 3.16 µM, first compound 10 µM) 0.17% | viability, T/C (second compound 10 µM, first compound 3.16 µM) 0.43% | viability, T/C (second compound 10 µM, first compound 10 µM) 0.3%
321 nM: IC50 [3]
460 nM: IC50 [2]

NC1CCC(NC2CC2c2ccccc2)CC1 (configuration not stated) + Cc1c(S(C)(=O)=O)c(-c2cc(F)cc(N3CCN(c4ccc(NS(=O)(=O)c5ccc(NC(CCN6CCC(C(=O)OCCCP(=O)(O)O)CC6)CSc6ccccc6)c(S(=O)(=O)C(F)(F)F)c5)cc4)CC3)c2)c(-c2ccc(Cl)cc2)n1C(C)C
< 0.316 nM: IC50 [3] | IC50 [4] | IC50 [5]
inactive: viability, T/C (second compound 0.1 µM, first compound 0.000316 µM) 72.7% | viability, T/C (second compound 0.1 µM, first compound 0.001 µM) 65.1% | viability, T/C [26] 65% | viability, T/C [27] 57.6% | viability, T/C [6] 65.2% | viability, T/C [7] 65.3% | viability, T/C (second compound 0.316 µM, first compound 0.000316 µM) 61.2% | viability, T/C (second compound 0.316 µM, first compound 0.001 µM) 60.9% | viability, T/C [28] 57% | viability, T/C [29] 46.4% | viability, T/C [10] 47.9% | viability, T/C [11] 51.6% | viability, T/C (second compound 1 µM, first compound 0.000316 µM) 32.5% | viability, T/C (second compound 1 µM, first compound 0.001 µM) 30.4% | viability, T/C [30] 29.1% | viability, T/C [31] 30.5% | viability, T/C [14] 28.3% | viability, T/C [15] 35.4% | viability, T/C (second compound 3.16 µM, first compound 0.000316 µM) 27% | viability, T/C (second compound 3.16 µM, first compound 0.001 µM) 28.9% | viability, T/C [32] 28.6% | viability, T/C [33] 25.6% | viability, T/C [18] 30.5% | viability, T/C [19] 31.7% | viability, T/C (second compound 10 µM, first compound 0.000316 µM) 30% | viability, T/C (second compound 10 µM, first compound 0.001 µM) 41.7% | viability, T/C [34] 26.4% | viability, T/C [35] 26.3% | viability, T/C [22] 32.9% | viability, T/C [23] 36.8%
> 100 nM: IC50 [1]
8.25 nM: IC50 [2]

CNC(C)C(=O)NC1CN(S(=O)(=O)c2cccc(S(=O)(=O)N3CCC4CCC(C(=O)NC(c5ccccc5)c5ccccc5)N4C(=O)C(NC(=O)C(C)NC)C3)c2)CCC2CCC(C(=O)NC(c3ccccc3)c3ccccc3)N2C1=O (configuration not stated) + Cc1c(S(C)(=O)=O)c(-c2cc(F)cc(N3CCN(c4ccc(NS(=O)(=O)c5ccc(NC(CCN6CCC(C(=O)OCCCP(=O)(O)O)CC6)CSc6ccccc6)c(S(=O)(=O)C(F)(F)F)c5)cc4)CC3)c2)c(-c2ccc(Cl)cc2)n1C(C)C
100 nM: IC50 [2]
< 3.16 nM: IC50 [3]
inactive: viability, T/C [26] 75.5% | viability, T/C [27] 60.4% | viability, T/C [6] 62.1% | viability, T/C [7] 53% | viability, T/C [8] 56% | viability, T/C [9] 45.3% | viability, T/C [28] 59.3% | viability, T/C [29] 59.7% | viability, T/C [10] 54.3% | viability, T/C [11] 42% | viability, T/C [12] 54.6% | viability, T/C [13] 41.7% | viability, T/C [30] 48.9% | viability, T/C [31] 40.8% | viability, T/C [14] 47.4% | viability, T/C [15] 48.9% | viability, T/C [16] 41.6% | viability, T/C [17] 42.8% | viability, T/C [32] 50.2% | viability, T/C [33] 39.1% | viability, T/C [18] 29.4% | viability, T/C [19] 30.7% | viability, T/C [20] 34.5% | viability, T/C [21] 24.1% | viability, T/C [34] 85.5% | viability, T/C [35] 81.9% | viability, T/C [22] 67.5% | viability, T/C [23] 56.8% | viability, T/C [24] 45.5% | viability, T/C [25] 53.5%
901 nM: IC50 [5]
542 nM: IC50 [1]
3.25 nM: IC50 [4]

NC(=O)C(=Cn1cnc(-c2cc(C(F)(F)F)cc(C(F)(F)F)c2)n1)c1cncnc1
inactive: viability, T/C (compound 0.000949 µM) 94.3% and 102% and 110% | viability, T/C (compound 0.003 µM) 82.4% and 87.5% and 105% | viability, T/C (compound 0.00949 µM) 76.6% and 76% and 91.7% | viability, T/C (compound 0.03 µM) 41.9% and 34.6% and 60.8% | viability, T/C (compound 0.0949 µM) 17% and 17.8% and 30.1%
23 nM and 19.9 nM and 45.4 nM: IC50 (curve of compound)
8.93% and 7.15% and 11.8%: viability, T/C (compound 0.3 µM)

COc1c(OCCCN2CCOCC2)ccc2c3n(c(=NC(=O)c4cnc(N)nc4)nc12)CCN3 + CNC(C)C(=O)NC1CN(S(=O)(=O)c2cccc(S(=O)(=O)N3CCC4CCC(C(=O)NC(c5ccccc5)c5ccccc5)N4C(=O)C(NC(=O)C(C)NC)C3)c2)CCC2CCC(C(=O)NC(c3ccccc3)c3ccccc3)N2C1=O
16.3 nM: IC50 (curve of first compound, second compound 0.01 µM)
4.09 nM: IC50 [3]
active: viability, T/C (second compound 0.01 µM, first compound 0.316 µM) 3.69% | viability, T/C (second compound 0.01 µM, first compound 1 µM) 1.21% | viability, T/C (second compound 0.0316 µM, first compound 0.316 µM) 4.55% | viability, T/C (second compound 0.0316 µM, first compound 1 µM) 1.09% | viability, T/C [7] 12.2% | viability, T/C [8] 3.36% | viability, T/C [9] 1.18% | viability, T/C [12] 3.2% | viability, T/C [13] 1.42% | viability, T/C [16] 4.7% | viability, T/C [17] 0.9%
12.1 nM: IC50 [1]
9.29 nM: IC50 (curve of first compound, second compound 0.0316 µM)
5.34 nM: IC50 [2]
inactive: viability, T/C (second compound 0.01 µM, first compound 0.00316 µM) 68.8% | viability, T/C (second compound 0.01 µM, first compound 0.01 µM) 60.1% | viability, T/C (second compound 0.01 µM, first compound 0.0316 µM) 36.4% | viability, T/C (second compound 0.01 µM, first compound 0.1 µM) 12.3% | viability, T/C (second compound 0.0316 µM, first compound 0.00316 µM) 54.7% | viability, T/C (second compound 0.0316 µM, first compound 0.01 µM) 50% | viability, T/C (second compound 0.0316 µM, first compound 0.0316 µM) 32.9% | viability, T/C (second compound 0.0316 µM, first compound 0.1 µM) 12.4% | viability, T/C [26] 57.1% | viability, T/C [27] 56.9% | viability, T/C [6] 29.9% | viability, T/C [28] 58% | viability, T/C [29] 39.8% | viability, T/C [10] 24.5% | viability, T/C [11] 8.8% | viability, T/C [30] 52.4% | viability, T/C [31] 41.6% | viability, T/C [14] 24.8% | viability, T/C [15] 11.3%
